The record followed here is patent publication US20230141887A1, “CRYSTAL FORM OF DIAZASPIROPYRAN COMPOUND” (MEDSHINE DISCOVERY INC., priority 2020, published 2023).

Structures are written as SMILES.

One test has as its target T1, FLT3(D835Y) (Homo sapiens, UniProt P36888, D835Y).
T1 sequence (P36888 27-993 D835Y): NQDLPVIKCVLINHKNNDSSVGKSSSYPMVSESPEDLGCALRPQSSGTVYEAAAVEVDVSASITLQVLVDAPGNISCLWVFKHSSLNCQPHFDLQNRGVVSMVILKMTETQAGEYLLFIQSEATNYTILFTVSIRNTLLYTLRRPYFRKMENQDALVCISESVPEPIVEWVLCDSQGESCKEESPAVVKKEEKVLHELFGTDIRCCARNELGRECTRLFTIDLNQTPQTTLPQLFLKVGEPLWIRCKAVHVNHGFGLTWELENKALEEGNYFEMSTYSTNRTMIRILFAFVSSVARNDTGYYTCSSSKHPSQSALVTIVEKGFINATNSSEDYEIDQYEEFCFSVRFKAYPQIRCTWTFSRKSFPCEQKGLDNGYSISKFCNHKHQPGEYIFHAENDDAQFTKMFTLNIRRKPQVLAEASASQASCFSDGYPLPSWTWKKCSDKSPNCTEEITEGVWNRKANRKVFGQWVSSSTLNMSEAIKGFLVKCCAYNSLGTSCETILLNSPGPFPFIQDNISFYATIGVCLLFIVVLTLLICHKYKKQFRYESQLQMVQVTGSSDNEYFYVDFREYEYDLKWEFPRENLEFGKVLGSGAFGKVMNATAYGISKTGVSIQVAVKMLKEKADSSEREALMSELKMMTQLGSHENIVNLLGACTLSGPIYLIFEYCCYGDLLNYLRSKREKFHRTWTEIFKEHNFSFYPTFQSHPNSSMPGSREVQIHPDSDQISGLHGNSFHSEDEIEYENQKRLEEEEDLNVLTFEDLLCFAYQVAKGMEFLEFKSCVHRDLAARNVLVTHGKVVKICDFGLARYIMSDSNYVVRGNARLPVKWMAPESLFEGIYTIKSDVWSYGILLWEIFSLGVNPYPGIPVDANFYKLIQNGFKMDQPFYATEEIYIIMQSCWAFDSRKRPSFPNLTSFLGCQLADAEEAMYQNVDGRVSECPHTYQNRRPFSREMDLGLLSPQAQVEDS
It is filed as binding. The protocol: (§1) The assay was carried out using KINOMEscan™ technology. The assay compounds were stored in 100% DMSO. The assay was carried out by means of 3-fold dilution and 11-point fitting. All compounds used for Kd determination were dispersed by ultrasound, then directly diluted and tested. All reactions were carried out in a 384-well polypropylene plate. Each portion has a final volume of 0.02 ml. The plate was incubated with shaking at room temperature for 1 hour, and then processed. The kinase concentration in the eluent was finally determined by qPCR method. Kd was obtained by fitting.

A further test addresses T2, FLT3(ITD) (Homo sapiens, UniProt P36888).
T2 construct: fused on or other part: DNA tag for the qPCR read-out (the KINOMEscan format)
T2 sequence (P36888 1-993): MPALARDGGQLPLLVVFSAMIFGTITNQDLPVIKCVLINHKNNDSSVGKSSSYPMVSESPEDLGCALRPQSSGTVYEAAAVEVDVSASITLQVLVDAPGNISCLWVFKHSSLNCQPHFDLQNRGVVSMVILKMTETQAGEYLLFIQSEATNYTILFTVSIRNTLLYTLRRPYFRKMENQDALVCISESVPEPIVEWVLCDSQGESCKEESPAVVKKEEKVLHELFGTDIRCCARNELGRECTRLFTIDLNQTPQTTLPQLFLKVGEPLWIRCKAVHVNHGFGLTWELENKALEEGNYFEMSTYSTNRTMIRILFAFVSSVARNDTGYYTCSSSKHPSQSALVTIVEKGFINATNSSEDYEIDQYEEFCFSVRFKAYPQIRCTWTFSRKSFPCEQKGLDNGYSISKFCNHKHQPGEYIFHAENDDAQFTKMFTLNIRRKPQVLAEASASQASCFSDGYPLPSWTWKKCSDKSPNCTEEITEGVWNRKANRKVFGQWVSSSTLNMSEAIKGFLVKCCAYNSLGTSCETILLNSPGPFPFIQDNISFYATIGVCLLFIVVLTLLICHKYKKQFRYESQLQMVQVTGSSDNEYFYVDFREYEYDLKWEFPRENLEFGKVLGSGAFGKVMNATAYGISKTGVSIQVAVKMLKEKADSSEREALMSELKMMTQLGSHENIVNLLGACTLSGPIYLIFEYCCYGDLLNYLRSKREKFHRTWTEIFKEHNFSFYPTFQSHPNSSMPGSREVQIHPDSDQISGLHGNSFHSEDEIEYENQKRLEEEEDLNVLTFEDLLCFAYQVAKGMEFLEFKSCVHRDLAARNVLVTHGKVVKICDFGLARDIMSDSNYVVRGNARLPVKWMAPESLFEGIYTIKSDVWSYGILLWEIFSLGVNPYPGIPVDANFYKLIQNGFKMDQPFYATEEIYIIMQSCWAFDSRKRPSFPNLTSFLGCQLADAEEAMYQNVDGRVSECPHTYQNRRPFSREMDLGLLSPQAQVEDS
It is filed as binding. The protocol: as §1

Take `CCc1nc(C(N)=O)c(Nc2ccc(N3CCC4(CCN(C)CC4)CC3)c(C)c2)nc1NC1CCOCC1.O=C(O)C(F)(F)F`: the dissociation constant (Kd) on FLT3(D835Y) turned out to be 1.4 nM; on FLT3(ITD), 3.6 nM.

Broadly, the Kd is the equilibrium constant for the complex coming apart. High values mean weaker binding, low ones tighter binding.
